For one assay, the system named is HT-29 cells. Nature of the assay: Inhibition of HT-29 cell proliferation (CellTiter-Glo cell viability). To be noted: Homo sapiens. Format: cell-based. The procedure:
Influences of the compounds of the present invention on HT-29 cell proliferation were determined by the following method. HT-29 cells (containing TP53 R273H mutation) were purchased from the Cell Bank of Shanghai Institute of Biochemistry and Cell Biology, Chinese Academy of Sciences, and cultured in a McCOY's 5A culture medium containing 10% fetal bovine serum, 100 U penicillin and 100 µg/mL streptomycin. A cell viability was determined by a CellTiter-Glo® Luminescent Cell Viability Assay kit (Promega, article number G7573).
(§1) An experimental method was operated according to steps in the instruction of the kit, which was briefly described as follows: a test compound was dissolved in DMSO first to prepare a 10 mM stock solution, then the stock solution was diluted with the culture medium to prepare a test sample, and a final concentration of the compound was in a range of 1000 nM-0.015 nM. Cells in a logarithmic growth phase were inoculated into a 96-well cell culture plate at a density of 1000 cells per well, cultured in a 5% CO2 incubator at 37°C overnight, and then the test compound was added to continuously culture for 120 hours. After the culture was ended, 50 uL of CellTiter-Glo detection solution was added to each well, shaken for 5 minutes, and then allowed to stand for 10 minutes, and subsequently, a luminance value of each well of the sample was read by a microplate reader in a Luminescence mode. By comparing with the numerical value of a control group (0.3% DMSO), a percentage inhibition rate of the compound at each concentration point was calculated, and then nonlinear regression analysis was carried out based on concentration logarithm-inhibition rate of the compound in GraphPad Prism 5 software, so as to obtain an IC50 value of the compound for inhibiting the cell proliferation, which was as shown in Table 2. Table 2 IC50 data of the compounds of the present invention for inhibiting HT-29 cell proliferation

A further assay deals with OVCAR-3 cells. Nature of the assay: Inhibition of OVCAR-3 cell proliferation (CellTiter-Glo cell viability). Type of assay: cell-based. The conditions noted are these: Homo sapiens. On the procedure:
Influences of the compounds of the present invention on OVCAR-3 cell proliferation were determined by the following method. OVCAR-3 cells (containing TP53 R248Q mutation) were purchased from the Cell Bank of Shanghai Institute of Biochemistry and Cell Biology, Chinese Academy of Sciences, and cultured in an RPMI 1640 culture medium containing 10% fetal bovine serum, 100 U penicillin and 100 µg/mL streptomycin. A cell viability was determined by a CellTiter-Glo® Luminescent Cell Viability Assay kit (Promega, article number G7573).
as §1, with “for 72” for “for 120”, “each well ,” for “each well,”, “Table 1.” for “Table 2.”, “Table 1” for “Table 2”, “inhibiting OVCAR-3” for “inhibiting HT-29”
On the technique in general: In ATP-based viability assays light output follows the ATP content of the culture.

The next assay concerns the target T1, recombinant human KIF18A (Homo sapiens, UniProt Q8NI77).
T1 construct: purchased GenScript
The assay is described as follows: Inhibition of KIF18A enzyme activity (ADP-Glo assay). Format: biochemical. To be noted: recombinant human KIF18A 100 nM, ATP 60 µM, tubulin, paclitaxel. The procedure:
Inhibition degrees of the compounds of the present invention on recombinant human KIF18A enzyme activity in vitro were determined by the following method. An ADP-Glo™ Kinase Assay kit (article number V9102) from Promega Company was used in this method. Detailed experimental operation referred to the instruction of the kit.
An experimental process was briefly described as follows: a test compound was dissolved in DMSO first to prepare a stock solution, then the stock solution was gradiently diluted with a reaction buffer A ([…], 0.01% Pluronic F-68), and a final concentration of the test compound in the reaction system was in a range of 10000 nM-0.15 nM; and a KIF18A protein and ATP working solution was prepared by using a reaction buffer B (15 mM Tris, pH 7.5, 10 mM MgCl2, 0.01% Pluronic F-68, 37.5 µg/ml tubulin, 1.25 µM paclitaxel). The reaction was carried out in a 384-well microplate. The test compound and the recombinant human KIF18A protein (final concentration of 100 nM, entrusted to GenScript for expression) were added into the wells and incubated at room temperature for 20 minutes, and subsequently, an ATP solution (component V915A from the ADP-Glo™ Kinase Assay kit, final concentration of 60 µM) was added to the reaction solution and the system was incubated at room temperature for 20 minutes. Subsequently, 5 µL of ADP-Glo Reagent was added to the reaction systemand the system was incubated at room temperature for 50 minutes. Then, 10 µL of Kinase Detection Reagent was added to the reaction system and the system was incubated at room temperature for 30 minutes. After the incubation was ended, a chemiluminiscence intensity value of each well was determined by a microplate reader in a Luminescence mode.
Background: In ADP-Glo the light output rises with the ADP produced.

[1] abbreviates: OVCAR-3 cells (TP53 R248Q mutation), 72 hours culture with compound, read-out: IC50.
The mark [2] stands for this setting: HT-29 cells (TP53 R273H mutation), 120 hours culture with compound, read-out: IC50.

Where two headings read alike, the source gives them in different places.

By IC50 is commonly meant the concentration needed to halve the response being measured.

T1 sequence (Q8NI77 whole entry): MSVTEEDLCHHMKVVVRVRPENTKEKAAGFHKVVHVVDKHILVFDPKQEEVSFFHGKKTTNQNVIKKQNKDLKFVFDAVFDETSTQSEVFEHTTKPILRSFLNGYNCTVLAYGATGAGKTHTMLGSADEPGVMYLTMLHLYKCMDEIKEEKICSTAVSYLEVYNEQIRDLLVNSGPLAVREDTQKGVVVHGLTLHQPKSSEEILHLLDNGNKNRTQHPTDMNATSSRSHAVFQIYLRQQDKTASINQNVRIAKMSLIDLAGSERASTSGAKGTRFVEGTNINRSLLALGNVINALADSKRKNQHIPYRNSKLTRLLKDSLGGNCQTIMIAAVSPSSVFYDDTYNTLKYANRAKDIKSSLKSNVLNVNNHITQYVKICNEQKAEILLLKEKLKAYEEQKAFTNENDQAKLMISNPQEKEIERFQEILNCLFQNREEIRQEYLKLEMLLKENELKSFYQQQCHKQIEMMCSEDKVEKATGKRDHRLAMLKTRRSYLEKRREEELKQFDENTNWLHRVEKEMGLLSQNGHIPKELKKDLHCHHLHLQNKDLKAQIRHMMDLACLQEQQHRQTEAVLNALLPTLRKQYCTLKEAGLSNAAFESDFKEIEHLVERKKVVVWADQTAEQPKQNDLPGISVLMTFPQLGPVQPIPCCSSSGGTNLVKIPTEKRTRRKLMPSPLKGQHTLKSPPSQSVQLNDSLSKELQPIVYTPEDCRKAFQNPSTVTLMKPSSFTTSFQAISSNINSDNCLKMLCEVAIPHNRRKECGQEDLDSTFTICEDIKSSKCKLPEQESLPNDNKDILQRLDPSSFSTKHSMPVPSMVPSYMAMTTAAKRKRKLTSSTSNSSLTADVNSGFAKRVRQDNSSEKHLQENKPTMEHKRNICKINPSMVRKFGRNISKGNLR
T1 sequence (P68363 whole entry partner): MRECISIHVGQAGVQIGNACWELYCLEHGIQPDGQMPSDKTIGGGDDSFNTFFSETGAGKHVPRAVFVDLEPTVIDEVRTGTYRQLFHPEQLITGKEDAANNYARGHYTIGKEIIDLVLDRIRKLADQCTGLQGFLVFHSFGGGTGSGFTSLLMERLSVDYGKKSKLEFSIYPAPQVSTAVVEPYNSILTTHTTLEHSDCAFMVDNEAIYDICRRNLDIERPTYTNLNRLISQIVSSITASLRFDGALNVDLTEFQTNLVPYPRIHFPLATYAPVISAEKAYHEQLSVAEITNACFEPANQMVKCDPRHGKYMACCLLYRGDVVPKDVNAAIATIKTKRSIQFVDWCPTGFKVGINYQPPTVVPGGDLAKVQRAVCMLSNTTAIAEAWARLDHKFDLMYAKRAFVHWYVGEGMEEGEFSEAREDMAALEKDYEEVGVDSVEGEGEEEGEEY
T1 sequence (Q9BVA1 whole entry partner): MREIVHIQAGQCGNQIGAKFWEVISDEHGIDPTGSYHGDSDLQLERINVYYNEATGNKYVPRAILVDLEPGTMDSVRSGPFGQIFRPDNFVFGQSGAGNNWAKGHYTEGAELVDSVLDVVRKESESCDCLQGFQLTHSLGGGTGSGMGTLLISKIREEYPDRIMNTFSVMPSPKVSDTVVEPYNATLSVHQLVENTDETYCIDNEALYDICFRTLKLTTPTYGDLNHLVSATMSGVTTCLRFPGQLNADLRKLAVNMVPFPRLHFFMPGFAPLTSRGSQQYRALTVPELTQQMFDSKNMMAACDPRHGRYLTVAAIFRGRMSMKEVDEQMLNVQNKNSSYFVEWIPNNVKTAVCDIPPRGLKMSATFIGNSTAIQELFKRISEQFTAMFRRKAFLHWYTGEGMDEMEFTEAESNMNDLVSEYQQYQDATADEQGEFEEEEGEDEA

As to `CCS(=O)(=O)Nc1ccc(C(=O)Nc2ccc(-c3ncc[nH]3)c(N3CCC(F)(F)CC3)c2)c(N2CCC3(CC2)CC3)c1` [Example 25, N-(3-(4,4-difluoropiperidin-1-yl)-4-(1H-imidazol-2-yl)pheny 1)-4-(ethylsulfonamido)-2-(6-azaspiro[2.5]octan-6-yl)benzamide], the IC50 in the assay on HT-29 cells (HT-29, 120 h) turned out to be 2.6 nM; in the assay on OVCAR-3 cells (OVCAR-3, 72 h), 3.5 nM; on recombinant human KIF18A, 33.9 nM.

For the compound `CCS(=O)(=O)Nc1ccc(C(=O)Nc2ccc(-c3nnco3)c(OC3CC(F)(F)C3)c2)c(N2CCC3(CC2)CC3)c1` [Example 50, N-(3-(3,3-difluorocyclobutoxy)-4-(1,3,4-oxadiazol-2-yl)phenyl)-4-(ethylsulfonamido)-2-(6-azaspiro[2.5]octan-6-yl)benzamide], the IC50 stood at 19.1 nM with OVCAR-3 cells (setting [1]) and 74.3 nM on recombinant human KIF18A (read-out: IC50).

Take `CCS(=O)(=O)Nc1ccc(C(=O)Nc2ccc(-c3ncc[nH]3)c(N3CCC(C)(O)CC3)c2)c(N2CCC3(CC2)CC3)c1` [Example 43, 4-(ethylsulfonamido)-N-(3-(4-hydroxy-4-methylpiperidin-1-yl)-4-(1H-imidazol-2-yl)pheny 1)-2-(6-azaspiro[2.5]octan-6-yl)benzamide]: the IC50 in the assay with OVCAR-3 cells (setting [1]) was determined as 18.8 nM; on recombinant human KIF18A (read-out: IC50), 115 nM.

For the compound `CCS(=O)(=O)Nc1ccc(C(=O)Nc2ccc(-n3ncnn3)c(N3CCC(F)(F)CC3)c2)c(N2CCC3(CC2)CC3)c1` [Example 30, N-(3-(4,4-difluoropiperidin-1-yl)-4-(2H-tetrazol-2-yl)phenyl)-4-(ethylsulfonamido)-2-(6-azaspiro[2.5]octan-6-yl)benzamide], the IC50 was 7.9 nM with HT-29 cells (setting [2]), 13.3 nM in the assay on OVCAR-3 cells (setting [1]) and 79 nM at recombinant human KIF18A (read-out: IC50).

Consider `CCS(=O)(=O)Nc1ccc(C(=O)Nc2ccc(-n3ccnc3)c(N3CCC(C)(O)CC3)c2)c(N2CCC3(CC2)CC3)c1` [Example 42, 4-(ethylsulfonamido)-N-(3-(4-hydroxy-4-methylpiperidin-1-yl)-4-(1H-imidazol-1-yl)pheny 1)-2-(6-azaspiro[2.5]octan-6-yl)benzamide], for which the half-maximal inhibitory concentration (IC50) at recombinant human KIF18A (read-out: IC50) was determined as 88 nM.

For the compound `CCS(=O)(=O)Nc1ccc(C(=O)Nc2ccc(-c3nnc(C)o3)c(OCC(F)(F)F)c2)c(N2CCC3(CC2)CC3)c1` [Example 52, 4-(ethylsulfonamido)-N-(4-(5-methyl-1,3,4-oxadiazol-2-yl)-3-(2,2,2-trifluoroethoxy)phenyl) -2-(6-azaspiro[2.5]octan-6-yl) benzamide], the IC50 came to 17.9 nM in the assay on OVCAR-3 cells (setting [1]) and 125 nM at recombinant human KIF18A (read-out: IC50).

As to `CCS(=O)(=O)Nc1ccc(C(=O)Nc2ccc(C(=O)O)c(N3CCC(F)(F)CC3)c2)c(N2CCC3(CC2)CC3)c1` [Example 2, 2-(4,4-difluoropiperidin-1-yl)-4-(4-(ethylsulfonamido)-2-(6-azaspiro[2.5]octan-6-yl)benzamido)benzoic acid], the IC50 with OVCAR-3 cells (setting [1]) turned out to be 42.9 nM; at recombinant human KIF18A (read-out: IC50) it was 29.5 nM.

Turning to `CCS(=O)(=O)Nc1ccc(C(=O)Nc2ccc(-c3ccnnc3)c(OC3CC(F)(F)C3)c2)c(N2CCC3(CC2)CC3)c1` [Example 48, N-(3-(3,3-difluorocyclobutoxy)-4-(pyridazin-4-yl)phenyl)-4-(ethylsulfonamido)-2-(6-azaspiro[2.5]octan-6-yl)benzamide], the IC50 stood at 14.4 nM with OVCAR-3 cells (setting [1]) and 102 nM on recombinant human KIF18A (read-out: IC50).

On to `CCS(=O)(=O)Nc1ccc(C(=O)Nc2ccc(-c3nnco3)c(OCC(F)(F)F)c2)c(N2CCC3(CC2)CC3)c1` [Example 51, N-(4-(1,3,4-oxadiazol-2-yl)-3-(2,2,2-trifluoroethoxy)phenyl)-4-(ethylsulfonamido)-2-(6-azaspiro[2.5]octan-6-yl)benzamide], for which the 50% inhibitory concentration (IC50) in the assay with OVCAR-3 cells (setting [1]) was determined as 27.4 nM; at recombinant human KIF18A (read-out: IC50) it was 107 nM.

`CCS(=O)(=O)Nc1ccc(C(=O)Nc2ccc(-n3cnnc3)c(N3CCC(F)(F)CC3)c2)c(N2CCC3(CC2)CC3)c1` [Example 27, N-(3-(4,4-difluoropiperidin-1-yl)-4-(4H-1,2,4-triazol-4-yl)phenyl)-4-(ethylsulfonamido)-2-(6-azaspiro[2.5]octan-6-yl)benz amide]: the IC50 was determined as 8.1 nM in the assay on OVCAR-3 cells (setting [1]) and 30.9 nM on recombinant human KIF18A (read-out: IC50).

As to `CCS(=O)(=O)Nc1ccc(C(=O)Nc2ccc(-c3nccn3C)c(N3CCC(F)(F)CC3)c2)c(N2CCC3(CC2)CC3)c1` [Example 26, N-(3-(4,4-difluoropiperidin-1-yl)-4-(1-methyl-1H-imidazol-2-yl)phenyl)-4-(ethylsulfonamido)-2-(6-azaspiro[2.5]octan-6-yl)benzamide], the half-inhibitory concentration (IC50) in the assay with HT-29 cells (setting [2]) was found to be 30.8 nM; on recombinant human KIF18A (read-out: IC50), 106 nM.

Turning to `CCS(=O)(=O)Nc1ccc(C(=O)Nc2ccc(-c3nnn[nH]3)c(N3CCC(F)(F)CC3)c2)c(N2CCC3(CC2)CC3)c1` [Example 33, N-(3-(4,4-difluoropiperidin-1-yl)-4-(1H-tetrazol-5-yl)phenyl)-4-(ethylsulfonamido)-2-(6-azaspiro[2.5]octan-6-yl)benzamide], the IC50 at recombinant human KIF18A (read-out: IC50) was 3.8 nM.

`CCS(=O)(=O)Nc1ccc(C(=O)Nc2ccc(-c3nnnn3C)c(N3CCC(F)(F)CC3)c2)c(N2CCC3(CC2)CC3)c1` [Example 34, N-(3-(4,4-difluoropiperidin-1-yl)-4-(1-methyl-1H-tetrazol-5-yl)phenyl)-4-(ethylsulfonamido)-2-(6-azaspiro[2.5]octan-6-yl)benzamide]: the IC50 was 49.8 nM in the assay on OVCAR-3 cells (setting [1]) and 90 nM on recombinant human KIF18A (read-out: IC50).

On to `CCS(=O)(=O)Nc1ccc(C(=O)Nc2ccc(-n3ccnc3)c(C3(O)CCC(F)(F)CC3)c2)c(N2CCC3(CC2)CC3)c1` [Example 44, N-(3-(4,4-difluoro-1-hydroxycyclohexyl)-4-(1H-imidazol-1-yl)phenyl)-4-(ethylsulfonamido)-2-(6-azaspiro[2.5]octan-6-yl)benzamide], for which the 50% inhibitory concentration (IC50) worked out at 45.5 nM in the assay on OVCAR-3 cells (setting [1]) and 130 nM at recombinant human KIF18A (read-out: IC50).

With `CCS(=O)(=O)Nc1ccc(C(=O)Nc2ccc(-c3nnn(C)n3)c(N3CCC(F)(F)CC3)c2)c(N2CCC3(CC2)CC3)c1` [Example 35, N-(3-(4,4-difluoropiperidin-1-yl)-4-(2-methyl-2H-tetrazol-5-yl)phenyl)-4-(ethylsulfonamido)-2-(6-azaspiro[2.5]octan-6-y 1)benzamide], the IC50 in the assay on HT-29 cells (setting [2]) stood at 6.2 nM; in the assay with OVCAR-3 cells (setting [1]) it was 11.1 nM.

Source of the values: patent EP4748837A1, “AROMATIC AMIDE DERIVATIVE, AND PREPARATION METHOD THEREFOR AND USE THEREOF” (Zhejiang Hisun Pharmaceutical Co., Ltd., priority 2023, dated 2025).
